Laboratory results: PubChem BioAssay AID743478 (Broad Institute, 2014)
Several values for one entry are separate records, joined by “and”; a condition that tells them apart may be missing. Equal values may be shown once. Activity calls are given as the source filed them.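 The calls were made as follows: active = fitted curve falls past -35% activity change at a dose below twice the highest valid tested dose; inconclusive = no clear call, values can overlap the other calls; inactive = the rest, including activity opposite to the expected decrease.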

Test system: A673 viability, CellTiter-Glo ATP luminescence, 72 h
Assay: A673 Ewing sarcoma cell viability loss – luminescence, retest at dose, dry powder, confirmation (AID 743478)
Settings: not given

| SMILES | AC35 |
| --- | --- |
| Cc1cc(Nc2cc(N3CCN(C)CC3)nc(Sc3ccc(NC(=O)C4CC4)cc3)n2)n[nH]1 | 0.271 µM |
| COc1cccc2c1C(=O)c1c(O)c3c(c(O)c1C2=O)C[C@@](O)(C(=O)CO)C[C@@H]3O[C@H]1C[C@H](N)[C@H](O)[C@H](C)O1 | < 0.05 µM |
| CC(C)(O)CCc1ccc(O)c2c(=O)c3c(O)c4c(cc3oc12)O[C@H]1OC=C[C@@]41O | 0.0326 µM |
| COc1ccc(-c2ccc3c(c2)[C@H]2[C@H](CCN2S(=O)(=O)c2ccc(OC)cc2)[C@@H](CO)N3)cc1 | 3.95 µM |
| COc1ccc(C(=O)CC2(O)C(=O)Nc3c(Cl)ccc(Cl)c32)cc1 (configuration not stated) | 2.25 µM |
| N#CC1=C(N)Oc2cc(N)ccc2C1c1ccccc1 (configuration not stated) | 12.2 µM |
| C=C([C@@H](O)[C@@H](C)O)[C@@H](OC)[C@]1(C)Cc2cc3cc(O[C@H]4CC(OC5CC(O)C(O)C(C)O5)C(O)C(C)O4)cc(O)c3c(O)c2C(=O)[C@H]1OC1CC(OC2CC(OC3CC(C)(O)C(O)C(C)O3)C(O)C(C)O2)C(O)C(C)O1 (some centres not stated) | 0.0368 µM |
| N#Cc1ccc(-c2ccc3c(c2)[C@H]2[C@H](CCN2S(=O)(=O)c2cccc(F)c2)[C@@H](CO)N3)cc1 | 5.43 µM |
| COc1ccc(-c2cc(NC=O)c3ncc(-c4ccc(OC)c(OC)c4)n3c2)cc1 | 0.545 µM |
| N#CC1=C(N)Oc2cc3c(cc2C1c1cccc(Br)c1)OCO3 (configuration not stated) | 0.0288 µM |
| Cc1cccc(C2C(C#N)=C(N)Oc3cc(N)ccc32)c1 (configuration not stated) | 0.486 µM |
| N#CC1=C(N)Oc2cc(N)ccc2C12C(=O)Nc1ccc(Br)cc12 (configuration not stated) | 18.9 µM |
| N#CC1=C(N)Oc2cc(N)ccc2C1c1ccc2ccccc2c1 (configuration not stated) | 11.9 µM |
| Cc1ccccc1C1C(C#N)=C(N)Oc2cc(N)ccc21 (configuration not stated) | 13.1 µM |
| Cn1cc(-c2ccncc2)c(-c2ccc(OCc3ccc4ccccc4n3)cc2)n1 | 21.3 µM |
| COc1ccc(C2=Nn3c(nnc3-c3ccccc3F)SC2)cc1OC | 3.18 µM |
| CN(C(=O)CCCOc1ccc2[nH]c(=O)ccc2c1)C1CCCCC1 | 20.7 µM |
| N#CC1=C(N)Oc2cc(O)ccc2C1c1cccc(Br)c1 (configuration not stated) | 1.84 µM |
| COc1ccc(OC)c(-c2nnc3n2N=C(c2ccc(OC)c(OC)c2)CS3)c1 | < 0.0235 µM and 0.0163 µM |
| C[C@@]1(C(=O)Nc2ccc(F)nc2)CCCN1c1nc(Nc2cc(C3CC3)[nH]n2)c2cccn2n1 | 0.296 µM |
| COc1ccccc1-c1nnc2n1N=C(c1ccc3c(c1)OCO3)CS2 | 0.0164 µM |

| SMILES | AC35 |
| --- | --- |
| N#CC1=C(N)Oc2cc(N)ccc2C1c1ccccc1Cl (configuration not stated) | 12.3 µM |
| COc1ccc(C2=Nn3c(nnc3-c3ccccc3Cl)SC2)cc1OC | 0.392 µM |
| CC[C@@]1(O)C(=O)OCc2c1cc1n(c2=O)Cc2cc3c(CN(C)C)c(O)ccc3nc2-1 | 0.0166 µM |
| COc1cccc(S(=O)(=O)N2CC[C@@H]3[C@@H](CO)Nc4ccc(-c5ccc(C#N)cc5)cc4[C@@H]32)c1 | 21.4 µM |
| Clc1ccccc1-c1nnc2n1N=C(c1ccc3c(c1)OCO3)CS2 | 0.408 µM |
| COc1ccc(S(=O)(=O)N2CC[C@@H]3[C@@H](CO)Nc4ccc(-c5cccc(C#N)c5)cc4[C@@H]32)cc1 | 3.95 µM |
| COc1ccc(S(=O)(=O)N2CC[C@@H]3[C@@H](CO)N(C)c4ccc(-c5ccc(F)cc5)cc4[C@@H]32)cc1 | 3.08 µM |
| COc1ccc(-c2ccc3c(c2)[C@H]2[C@H](CCN2S(=O)(=O)c2ccc(OC)cc2)[C@@H](CO)N3C)cc1 | 3.42 µM |
| COc1ccc(S(=O)(=O)N2CC[C@@H]3[C@@H](CO)Nc4ccc(-c5ccc(C#N)cc5)cc4[C@@H]32)cc1 | 4.03 µM |
| N#CC1=C(N)Oc2cc(OC(=O)c3ccccc3)ccc2C1c1cccc(Br)c1 (configuration not stated) | 2.46 µM |
| N#CC1=C(N)Oc2cc(N)ccc2C1c1cccc(Br)c1 (configuration not stated) | 0.104 µM |
| CN(C)c1ccc2c(c1)OC(N)=C(C#N)C2c1cccc(F)c1 (configuration not stated) | 0.0177 µM |
| Cc1ccc(S(=O)(=O)N2CC[C@@H]3[C@@H](CO)Nc4ccc(-c5ccc(C#N)cc5)cc4[C@@H]32)cc1 | 19.8 µM |
| COc1ccc(C2=Nn3c(nnc3-c3ccccc3OC)SC2)cc1OC | 0.0556 µM |
| CC(C)N1c2ccccc2C(c2ccc(F)cc2)C1/C=C/C(O)CC(O)CC(=O)O (configuration not stated) | 1.42 µM |
| CC[C@]1(O)CC2CN(CCc3c([nH]c4ccccc34)[C@@](C(=O)OC)(c3cc4c(cc3OC)N(C=O)[C@H]3[C@@](O)(C(=O)OC)[C@H](OC(C)=O)[C@]5(CC)C=CCN6CC[C@]43[C@@H]65)C2)C1 (some centres not stated) | < 0.0015 µM |
| O=C(c1cc(Cc2n[nH]c(=O)c3ccccc23)ccc1F)N1CCN(C(=O)C2CC2)CC1 | 3.97 µM |
| N#Cc1ccc(-c2ccc3c(c2)[C@H]2[C@H](CCN2S(=O)(=O)c2ccccc2F)[C@@H](CO)N3)cc1 | 12.5 µM |
| Nc1ncnc2c1c(-c1cccc(OCc3ccccc3)c1)cn2C1CC(CN2CCCC2)C1 (configuration not stated) | 3.76 µM |
| Nc1ccn([C@@H]2O[C@H](CO)[C@H](O)C2O)c(=O)n1 (some centres not stated) | 0.066 µM |
| CCC(C)C(=O)OC1CC(C)C=C2C=CC(C)C(CCC(O)CC(O)CC(=O)O)C21 (configuration not stated) | 25.2 µM |

| SMILES | AC35 |
| --- | --- |
| Cc1ccc([N+](=O)[O-])cc1S(=O)(=O)N(C)C | 3.97 µM |
| COc1cc(C2C(C#N)=C(N)Oc3cc(N(C)C)ccc32)cc2c1OCO2 (configuration not stated) | 0.0823 µM |
| CCOC(=O)CCNc1cc(N2CCc3ccccc3CC2)nc(-c2ccccn2)n1 | 14.8 µM |
| CN1c2ccc(-c3ccc(C#N)cc3)cc2[C@H]2[C@H](CCN2S(=O)(=O)c2cccc(F)c2)[C@H]1CO | 3.65 µM |
| N#CC1=C(N)Oc2ccc3ccccc3c2C1c1cccc(F)c1 (configuration not stated) | 0.526 µM |
| Cc1nc(Nc2ncc(C(=O)Nc3c(C)cccc3Cl)s2)cc(N2CCN(CCO)CC2)n1 | 5.45 µM |
| CC1(C)CC(c2nc(-c3ccc4ccc(-c5ccccc5)nc4c3)c3c(N)nccn23)C1 | 2.02 µM |
| CCc1c2c(nc3ccc(O)cc13)-c1cc3c(c(=O)n1C2)COC(=O)C3(O)CC (configuration not stated) | 0.002 µM |
| CCCCc1ccc2nc(NC(=O)OC)[nH]c2c1 | < 0.05 µM |
| COc1ccc(S(=O)(=O)N(C(C)=O)c2ccc(OC(C)=O)c3ccccc23)cc1[N+](=O)[O-] | 0.46 µM |
| COc1cccc(C2C(C#N)=C(N)Oc3cc(N)ccc32)c1 (configuration not stated) | 0.444 µM |
| O=C(Cc1ccc(-c2ccc(OCCN3CCOCC3)cc2)cn1)NCc1ccccc1 | < 0.0235 µM |
| COc1ccccc1S(=O)(=O)N1CC[C@@H]2[C@@H](CO)Nc3ccc(-c4ccc(C#N)cc4)cc3[C@@H]21 | 11.6 µM |
| COc1cc([C@@H]2c3cc4c(cc3[C@@H](O[C@@H]3O[C@@H]5CO[C@@H](C)O[C@H]5[C@H](O)[C@H]3O)[C@H]3COC(=O)[C@H]23)OCO4)cc(OC)c1O | 0.751 µM |
| COc1ccc(S(=O)(=O)N2CC[C@@H]3[C@H](CO)Nc4ccc(-c5ccc(C#N)cc5)cc4[C@@H]32)cc1 | 6.54 µM |
| CN1CCN(CCOc2cc(OC3CCOCC3)c3c(Nc4c(Cl)ccc5c4OCO5)ncnc3c2)CC1 | 22 µM |
| COc1ccccc1-c1nnc2n1N=C(c1ccc(O)c(O)c1)CS2 | 0.807 µM |
| Cc1c([C@H](C(Cl)Cl)[C@H](O)[C@H]2C[C@H](C)C(=O)O2)ccc2c1C(=O)[C@H]1[C@H]2C[C@@H](Br)[C@@]23O[C@@H](CO[C@H]2O)C[C@]13C | < 0.05 µM |
| N#CC1=C(N)Oc2cc(N)ccc2C1c1cccc(F)c1 (configuration not stated) | 0.907 µM |

Test system: not listed separately
Assay: as above
Settings: A673 viability, CellTiter-Glo ATP luminescence, 72 h; at 1.6 µM (top of the series)

| SMILES | activity change, negative = cytotoxicity |
| --- | --- |
| CCN(CCO)CCCOc1ccc2c(Nc3cc(CC(=O)Nc4cccc(F)c4)[nH]n3)ncnc2c1 | -35.3% (inactive) |

Same assay, conditions: A673 viability, CellTiter-Glo ATP luminescence, 72 h; at 6 µM (top of the series)

| SMILES | activity change, negative = cytotoxicity |
| --- | --- |
| Clc1ccc(-c2cnc3ccc(-c4ccccc4)cn23)cc1 | 1.33% (inactive) |

Same assay, conditions: A673 viability, CellTiter-Glo ATP luminescence, 72 h; at 12 µM (top of the series)

| SMILES | activity change, negative = cytotoxicity |
| --- | --- |
| COc1ccc(NC(=O)Nc2ccc3c(c2)C(=O)N([C@@H](C)CO)C[C@H](C)[C@H](CN(C)Cc2ccc4c(c2)OCO4)O3)cc1 | -32.3% (inactive) |

Same assay, conditions: A673 viability, CellTiter-Glo ATP luminescence, 72 h; at 26 µM (top of the series)

| SMILES | activity change, negative = cytotoxicity |
| --- | --- |
| COc1ccc(CNc2nc(N3CCC[C@H]3CO)ncc2C(=O)NCc2ncccn2)cc1Cl | 0.28% (inactive) |
| COc1ccc(C2=Nn3c(nnc3-c3ccccc3)SC2)cc1OC | -5.89% (inactive) |
| COc1ccc(-c2cc(NC(C)=O)c3ncc(-c4ccc(OC)c(OC)c4)n3c2)cc1 | -6.5% (inactive) |
| CN1c2ccc(-c3ccc(C#N)cc3)cc2[C@H]2[C@H](CCN2S(=O)(=O)c2ccc(F)cc2)[C@H]1CO | -15.2% (inactive) |
| COc1ccc(C2CNC(=O)C2)cc1OC1CCCC1 (configuration not stated) | -1.09% (inactive) |
| COc1ccc(C2C(C#N)=C(N)Oc3cc(N)ccc32)cc1 (configuration not stated) | -1.79% (inactive) |
| O=C(Nc1c(Cl)cncc1Cl)c1ccc(OC(F)F)c(OCC2CC2)c1 | 7.47% (inactive) |
| CCC(C)(C)C(=O)O[C@H]1C[C@@H](C)C=C2C=C[C@H](C)[C@H](CC[C@@H]3C[C@@H](O)CC(=O)O3)[C@H]21 | -7.51% (inactive) |
| N#CC1=C(N)Oc2cc(N)ccc2C1c1ccc(Cl)cc1 (configuration not stated) | 0.262% (inactive) |
| C[C@]1(c2nc3c(C(N)=O)cccc3[nH]2)CCCN1 | -26% (inactive) |
| COc1ccccc1C1C(C#N)=C(N)Oc2cc(N)ccc21 (configuration not stated) | -4.28% (inactive) |
| Cc1ccc(C2C(C#N)=C(N)Oc3cc(N)ccc32)cc1 (configuration not stated) | -0.754% (inactive) |

Same assay, conditions: A673 viability, CellTiter-Glo ATP luminescence, 72 h; at 50 µM (top of the series)

| SMILES | activity change, negative = cytotoxicity |
| --- | --- |
| O=P1(NCCCl)OCCCN1CCCl (configuration not stated) | 0.494% (inactive) |
